Experiments:
[1] = system: strain DH10B with plasmid pTrc99A-gfp; experiment: Extracellular induction of hydrogel-encapsulated cells with pTrc99A-gfp (GFP expression) by the HPT method; type: cell-based, Escherichia coli; details: 1 mM IPTG in agarose substrate; average of 10 hydrogel microparticles; GFP produced until 8 hours
Protocol: Competent cells of the MG1655 and DH10B were transformed with synthetically engineered genetic circuits. Some plasmids were transferred from the Registry of Standard Biological Parts, and the others were constructed in the experiment with different antibiotic resistance marker genes. For the growth of these strains, each Escherichia coli culture was grown overnight on M 9 agar solid medium plates with appropriate antibiotics at 35° C. A single colony was used to inoculate 5 mL M9 media with 1% glucose, 1% tryptone, and either 100 μg/mL ampicillin or 30 μg/mL chloramphenicol. Thereafter, the cultures were then grown overnight (16 hours) with vigorous aeration (200 rpm in a rotary shaker), and OD600=1.5-2 cells (1-2 mL) were centrifuged at 5000 rpm for 5 min. The obtained pellet was resuspended with fresh M9 media to give bacterial suspensions with desired cell densities. […]
The images of cell patterns were taken using a stereomicroscope (SZX16, Olympus, Japan) equipped with a CCD camera (DP72, Olympus, Japan) and a fluorescent light source (Xcite-200, ExFo Photonics solutions Inc., Mississauga, Canada) operated by the DP2-BSW software (Olympus, Japan). […] All image processing and quantification of fluorescent intensities were performed using Image J. (NIH, USA), and then results were plotted using Origin 7.1 (OriginLab, Northampton, Mass., USA). […]

[2] = system: araBAD promoter (PBAD) of pZBRG; experiment: Induction of RFP from the genetic circuit pZBRG (araBAD promoter) in hydrogel-encapsulated cells; type: cell-based, Escherichia coli

## CC(C)S[C@@H]1O[C@H](CO)[C@H](O)[C@H](O)[C@H]1O [IPTG, isopropyl-beta-D-thiogalactopyranoside]
[1]
  gene expression level (average GFP fluorescent intensity): 40 AU

## O=C[C@@H](O)[C@H](O)[C@H](O)CO [arabinose]
[2]; 400 mM arabinose in agarose substrate, in 8 hours
  RFP expression of patterned cells: activated to express red fluorescent protein (RFP)
[2]; RFP gradient reaches saturated values in about 10 hours
  threshold concentration (inducer gradient): relatively high
[2]; both tetracycline (1 μM) and arabinose (400 μM)
  cross-talk on simultaneous induction (RFP): no significant cross-talk was observed
[2]; only arabinose (400 μM) in agarose substrate
  fluorescent signals detected, separate induction: only RFP signals were detected
